Measured values reported in ChEMBL document CHEMBL4814028, “Design, synthesis, and antibacterial evaluation of PFK-158 derivatives as potent agents against drug-resistant bacteria” (Bioorg Med Chem Lett, 2021).
Converted amounts (≈) assume the structure as drawn.

Assays:
[1] = tested on: Staphylococcus epidermidis; experiment: Antibacterial activity against methicillin-sensitive Staphylococcus epidermidis ATCC 12228 by agar method; assay type: functional
[2] = tested on: Staphylococcus epidermidis; experiment: Antibacterial activity against methicillin-resistant Staphylococcus epidermidis 16-5 by agar method; assay type: functional
Staphylococcus aureus [3] = experiment: Antibacterial activity against methicillin-sensitive Staphylococcus aureus ATCC 29213 by agar method; assay type: functional
Staphylococcus aureus [4] = experiment: Antibacterial activity against methicillin-resistant Staphylococcus aureus ATCC 33591 by agar method; assay type: functional
Enterococcus faecalis [5] = experiment: Antibacterial activity against Vancomycin-sensitive Enterococcus faecalis ATCC 29212 by agar method; assay type: functional
Enterococcus faecalis [6] = experiment: Antibacterial activity against vancomycin-resistant Enterococcus faecalis ATCC 51299 by agar method; assay type: functional
Escherichia coli [7] = experiment: Antibacterial activity against ESBLs positive Escherichia coli ATCC 35218 by agar method; assay type: functional
Escherichia coli [8] = experiment: Antibacterial activity against ESBLs negative Escherichia coli ATCC 25922 by agar method; assay type: functional
Escherichia coli [9] = experiment: Antibacterial activity against NDM-1 positive Escherichia coli ATCC 2469 by agar method; assay type: functional
Acinetobacter baumannii = experiment: Antibacterial activity against carbapenem-resistant Acinetobacter baumannii 16-33 by agar method; assay type: functional
Escherichia coli [10] = experiment: Antibacterial activity against carbapenem-resistant Escherichia coli 08-85 mcr-1 positive isolate by checkerboard assay; assay type: functional
Escherichia coli [11] = experiment: Synergistic antibacterial activity against carbapenem-resistant Escherichia coli 08-85 mcr-1 positive isolate in presence of colistin by checkerboard assay; assay type: functional
Escherichia coli [12] = experiment: Synergistic antibacterial activity against carbapenem-resistant Escherichia coli 08-85 mcr-1 positive isolate assessed as fractional inhibitory concentration index in presence of colistin by checkerboard assay; assay type: functional
Enterobacter cloacae [13] = experiment: Antibacterial activity against carbapenem-resistant Enterobacter cloacae D01 mcr-1 negative isolate by checkerboard assay; assay type: functional
Enterobacter cloacae [14] = experiment: Synergistic antibacterial activity against carbapenem-resistant Enterobacter cloacae D01 mcr-1 negative isolate in presence of colistin by checkerboard assay; assay type: functional
Enterobacter cloacae [15] = experiment: Synergistic antibacterial activity against carbapenem-resistant Enterobacter cloacae D01 mcr-1 negative isolate assessed as fractional inhibitory concentration index in presence of colistin by checkerboard assay; assay type: functional
[16] = tested on: Staphylococcus epidermidis; experiment: Potency index, ratio of Levofloxacin MIC to test compound MIC for antibacterial activity against methicillin-resistant Staphylococcus epidermidis […] 16-5; assay type: functional
A549 = experiment: Cytotoxicity against human A549 cells; assay type: cell-based

Work on `O=C(/C=C/c1ccccn1)c1ccc2ccccc2c1` yielded an MIC [1] of 1 µg/mL (≈ 3.86 µM), an MIC [2] of 2 µg/mL (≈ 7.71 µM) and an MIC (Staphylococcus aureus [3]) of 1 µg/mL (≈ 3.86 µM). It also gave an MIC (Staphylococcus aureus [4]) of 1 µg/mL (≈ 3.86 µM), an MIC (Enterococcus faecalis [5]) of 8 µg/mL (≈ 30.9 µM) and an MIC (Enterococcus faecalis [6]) of 8 µg/mL (≈ 30.9 µM). The MIC (Escherichia coli [7]) was > 128 µg/mL, the MIC (Escherichia coli [8]) was > 128 µg/mL and the MIC (Escherichia coli [9]) was > 128 µg/mL. The MIC (Acinetobacter baumannii) was > 128 µg/mL, the MIC (Escherichia coli [10]) was 1020 µg/mL and the MIC (Escherichia coli [11]) was 128 µg/mL. The “fractional inhibitory concentration index (FICI)” value (Escherichia coli [12]) was 0.375, the MIC (Enterobacter cloacae [13]) was 1020 µg/mL and the MIC (Enterobacter cloacae [14]) was 16 µg/mL. The “fractional inhibitory concentration index (FICI)” value (Enterobacter cloacae [15]) was 0.023.
In the case of `O=C(/C=C/c1ccc2ccccc2n1)c1ccccn1`, the MIC [1] is reported as 1 µg/mL (≈ 3.84 µM), the MIC [2] is reported as 1 µg/mL (≈ 3.84 µM) and the MIC (Staphylococcus aureus [3]) is reported as 2 µg/mL (≈ 7.68 µM). It also gave an MIC (Staphylococcus aureus [4]) of 1 µg/mL (≈ 3.84 µM), an MIC (Enterococcus faecalis [5]) of 4 µg/mL (≈ 15.4 µM) and an MIC (Enterococcus faecalis [6]) of 4 µg/mL (≈ 15.4 µM). For the same compound, the MIC (Escherichia coli [7]) was > 32 µg/mL, the MIC (Escherichia coli [8]) was > 32 µg/mL and the MIC (Escherichia coli [9]) was > 32 µg/mL. For the same compound, the MIC (Acinetobacter baumannii) was > 32 µg/mL, the Ratio [16] was 2 and the IC50 (A549) was 18.5 µM. The MIC (Escherichia coli [10]) was 1020 µg/mL, the MIC (Escherichia coli [11]) was 32 µg/mL and the “fractional inhibitory concentration index (FICI)” value (Escherichia coli [12]) was 0.281. For the same compound, the MIC (Enterobacter cloacae [13]) was 1020 µg/mL, the MIC (Enterobacter cloacae [14]) was 4 µg/mL and the “fractional inhibitory concentration index (FICI)” value (Enterobacter cloacae [15]) was 0.012.
`O=C(/C=C/c1ccc2ccccc2n1)c1ccccc1` was tested, and the MIC [1] was 2 µg/mL (≈ 7.71 µM), the MIC [2] was 4 µg/mL (≈ 15.4 µM) and the MIC (Staphylococcus aureus [3]) was 2 µg/mL (≈ 7.71 µM). For the same compound, the MIC (Staphylococcus aureus [4]) was 2 µg/mL (≈ 7.71 µM), the MIC (Enterococcus faecalis [5]) was 128 µg/mL (≈ 494 µM) and the MIC (Enterococcus faecalis [6]) was 128 µg/mL (≈ 494 µM). For the same compound, the MIC (Escherichia coli [7]) was > 128 µg/mL, the MIC (Escherichia coli [8]) was > 128 µg/mL and the MIC (Escherichia coli [9]) was > 128 µg/mL. The MIC (Acinetobacter baumannii) was > 128 µg/mL and the Ratio [16] was 2.
Work on `O=C(/C=C/c1ccc2ccccc2n1)c1cccnc1` yielded an MIC [1] of 2 µg/mL (≈ 7.68 µM), an MIC [2] of 4 µg/mL (≈ 15.4 µM) and an MIC (Staphylococcus aureus [3]) of 2 µg/mL (≈ 7.68 µM). For the same compound, the MIC (Staphylococcus aureus [4]) was 2 µg/mL (≈ 7.68 µM), the MIC (Enterococcus faecalis [5]) was 2 µg/mL (≈ 7.68 µM) and the MIC (Enterococcus faecalis [6]) was 8 µg/mL (≈ 30.7 µM). For the same compound, the MIC (Escherichia coli [7]) was > 32 µg/mL, the MIC (Escherichia coli [8]) was > 32 µg/mL and the MIC (Escherichia coli [9]) was > 32 µg/mL. For the same compound, the MIC (Acinetobacter baumannii) was > 32 µg/mL, the Ratio [16] was 2 and the IC50 (A549) was 21.1 µM. The MIC (Escherichia coli [10]) was 1020 µg/mL, the MIC (Escherichia coli [11]) was 64 µg/mL and the “fractional inhibitory concentration index (FICI)” value (Escherichia coli [12]) was 0.313. The MIC (Enterobacter cloacae [13]) was 1020 µg/mL, the MIC (Enterobacter cloacae [14]) was 64 µg/mL and the “fractional inhibitory concentration index (FICI)” value (Enterobacter cloacae [15]) was 0.07.
With `O=C(/C=C/c1ccc2ccc(C(F)(F)F)cc2n1)c1ccncc1` [PFK-158] the MIC [1] was 1 µg/mL (≈ 3.05 µM), the MIC [2] was 2 µg/mL (≈ 6.09 µM) and the MIC (Staphylococcus aureus [3]) was 2 µg/mL (≈ 6.09 µM). The MIC (Staphylococcus aureus [4]) was 2 µg/mL (≈ 6.09 µM), the MIC (Enterococcus faecalis [5]) was 4 µg/mL (≈ 12.2 µM) and the MIC (Enterococcus faecalis [6]) was 4 µg/mL (≈ 12.2 µM). For the same compound, the MIC (Escherichia coli [7]) was > 32 µg/mL, the MIC (Escherichia coli [8]) was > 32 µg/mL and the MIC (Escherichia coli [9]) was > 32 µg/mL. For the same compound, the MIC (Acinetobacter baumannii) was > 32 µg/mL, the Ratio [16] was 2 and the IC50 (A549) was 15 µM. The MIC (Escherichia coli [10]) was 1020 µg/mL, the MIC (Escherichia coli [11]) was 2 µg/mL and the “fractional inhibitory concentration index (FICI)” value (Escherichia coli [12]) was 0.252. For the same compound, the MIC (Enterobacter cloacae [13]) was 1020 µg/mL, the MIC (Enterobacter cloacae [14]) was 0.5 µg/mL and the “fractional inhibitory concentration index (FICI)” value (Enterobacter cloacae [15]) was 0.008.
`O=C(/C=C/c1ccc2c(C(F)(F)F)cccc2n1)c1cccnc1` showed an MIC [1] of 2 µg/mL (≈ 6.09 µM), an MIC [2] of 2 µg/mL (≈ 6.09 µM) and an MIC (Staphylococcus aureus [3]) of 2 µg/mL (≈ 6.09 µM). The MIC (Staphylococcus aureus [4]) was 2 µg/mL (≈ 6.09 µM), the MIC (Enterococcus faecalis [5]) was 32 µg/mL (≈ 97.5 µM) and the MIC (Enterococcus faecalis [6]) was 32 µg/mL (≈ 97.5 µM). For the same compound, the MIC (Escherichia coli [7]) was > 128 µg/mL, the MIC (Escherichia coli [8]) was > 128 µg/mL and the MIC (Escherichia coli [9]) was > 128 µg/mL. The MIC (Acinetobacter baumannii) was 128 µg/mL (≈ 390 µM), the Ratio [16] was 2 and the IC50 (A549) was > 50 µM.
